# B1: Peptide 1 (HIV-TAT + S100A1 derived peptide) (peptide)
# peptide: YGRKKRRQRRRVVLVAALTVACNNFFWE
# notes: HIV-TAT cell-penetrating segment derived from the TAT protein of human immunodeficiency virus; S100A1, human, C-terminal residues 76 to 92 (17 residues); 28 residues; the TAT segment stands N-terminal of the S100A1 stretch; also called fusion peptide; source: synthetic peptide, bought: Kelowna International Scientific Inc., >= 95% purity
# Key:
# [1] = system: MDM2 N- terminal domain (2–125); settings: ref [52]; cited from earlier work
# Source text: (§1) With a helix–loop–helix pattern, these proteins are site-specific and form homo and heterodimers. These proteins interact with copper, zinc, and calcium ions, and calcium-binding facilitates a variety of extracellular and intracellular governing consequences of these proteins. […] Further, it was also found to connect with the p53 tetrameriza ...
# [2] = system: p53 tetramerization domain (residues, 325–355); settings: ref [49]; cited from earlier work
# Source text: as §1
# [3] = system: C-terminal domain (residues, 293–393); settings: monomeric fragment versus tetrameric form; ref [50]; cited from earlier work
# Source text: as §1
# [4] = system: p53 transactivation domain (residues, 1–57); settings: fluorescence anisotropy; ref [50]; cited from earlier work
# Source text: as §1
# [5] = system: phosphorylated p53 N-terminus; settings: single-site phosphorylation, fluorescence anisotropy; ref [51]; cited from earlier work
# Source text: as §1
# [6] = system: p53 peptide (residues, 367–393); settings: ref [49]; cited from earlier work
# Source text: as §1
# MDM2-p53 complex = test: HSQC-NMR competitive binding experiment; set-up: species or system human; settings: unlabeled p53 added to 15N-labeled MDM2, 1:1, pH 7.2
# Description: HSQC- NMR competitive binding experiment
# All the experiments were carried out in the NMR buffer containing 20 mM Tris-HCl, 15 mM NaCl, 20 mM CaCl2, 20 mM DTT, 0.1% NaN3, and 10% D2O; pH 7.2.
# MDM2 (17–125) = settings: p53 (1–73), besides helix region (18–26); ref [70]; cited from earlier work
# [7] = system: various cell lines including MCF-7; set-up: method as in PMID 19914216; settings: ref [85], cited from earlier work
# [8] = HIV-TAT alone; ref [79]; cited from earlier work
# Source text: [79] […] The (LLKK)3 imparts an amphiphilic α-helical conformation to the peptide that disrupts the cellular membranes. […] [81] Altogether it can be inferred that the TAT sequence has a very minimal effect to the confirmation of the conjugated partner under consideratio ...
# [9] = ref [77]; cited from earlier work
# Source text: We selected residues from 76 to 92 (17 residues) for our peptide construction.
# HeLa cells = settings: N-terminal fluorescein tagged, even after five hours; ref [86]; cited from earlier work
# Source text: [86] […] [85] […] [ ...
# [10] = Stability of peptides in cells (inferred from WST-1 assay); settings: deduced from WST-1 results after 48 hours of incubation
# [11] = target: T1, p53-TAD (residues 1-73), N-terminal domain of p53 (UniProt P04637 1-73); test: other fluorescence titration; tryptophan fluorescence of p53 (1-73), excitation 295 nm; Peptide 1 0 to 12.0 uM added to 2 uM p53; 20 mM Tris-HCl, 15 mM NaCl, 20 mM CaCl2, 20 mM DTT, 0.1% NaN3, pH 7.2; settings: both partners purified
# T1 construct: cleaved protein of 8.6 kDa; plasmid a gift of G. Daughdrill; Used unlabelled or 15N-labelled; also called p53 (1-73); p53 N-terminal domain; source: bacterial cells in M9 media, purified (Ni-NTA, thrombin digestion, Superdex 75)
# T1 sequence (P04637 1-73): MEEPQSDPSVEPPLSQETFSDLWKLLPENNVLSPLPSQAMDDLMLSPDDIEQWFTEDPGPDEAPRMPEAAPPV
molecule,measurement,setting,value
S100A1: human S100A1 protein produced in BL21 (DE3) E. coli [Peptide S100A1],association with MDM2 N-terminal domain (2–125),[1],found to associate with the MDM2 N- terminal domain (2–125) and does not lead to the formation of a ternary complex with MDM2 and p53
same,interaction with p53 TET domain (325–355),[2],only interacted with the TET domain when its oligomerization state was lowered (monomers or dimers)
same,binding to p53 C-terminal domain (293–393),[3],"could bind to the monomeric fragment of the C-terminal domain (residues, 293–393) but unable to form a complex with the tetrameric form"
same,binding to p53 transactivation domain (1–57),[4],"binding of S100A1 to the p53 transactivation domain (residues, 1–57)"
same,affinity of phosphorylated p53 N-terminus for S100A1,[5],increased affinity for S100A1
same,association with p53 peptide (367–393),[6],"found to associate with the p53 peptide (residues, 367–393)"
"p53 (1–73): p53-TAD (residues, 1–73)",effect on 15N labeled MDM2 HSQC peaks,MDM2-p53 complex,several ^15N labeled MDM2 peaks were shifted and/or disappeared
same,p53 regions able to bind to MDM2,MDM2 (17–125),nascent turns 1 (40–45) and 2 (49–54) are furthermore able to bind to MDM2
YGRKKRRQRRR [TAT peptide],"cytotoxicity of TAT peptide, above 5 μM",[7]; above 5 μM,11–22%
same,"cytotoxicity of TAT peptide, up to 5 μM",[7]; up to 5 μM,non-toxic
same,conformation by CD spectrum,[8],unstructured form
same,delivery of heterologous proteins,[9],cytoplasmic delivery of heterologous proteins which was independent of the cell type
same,stability of TAT peptide (cytoplasmic fluorescence),HeLa cells,quite stable
CC(C)C[C@H](NC(=O)[C@H](C)NC(=O)[C@H](C)NC(=O)[C@@H](NC(=O)[C@H](CC(C)C)NC(=O)[C@@H](NC(=O)[C@@H](NC(=O)[C@H](CCCNC(=N)N)NC(=O)[C@H](CCCNC(=N)N)NC(=O)[C@H](CCCNC(=N)N)NC(=O)[C@H](CCC(N)=O)NC(=O)[C@H](CCCNC(=N)N)NC(=O)[C@H](CCCNC(=N)N)NC(=O)[C@H](CCCCN)NC(=O)[C@H](CCCCN)NC(=O)[C@H](CCCNC(=N)N)NC(=O)CNC(=O)[C@@H](N)Cc1ccc(O)cc1)C(C)C)C(C)C)C(C)C)C(=O)N[C@H](C(=O)N[C@H](C(=O)N[C@@H](C)C(=O)N[C@@H](CS)C(=O)N[C@@H](CC(N)=O)C(=O)N[C@@H](CC(N)=O)C(=O)N[C@@H](Cc1ccccc1)C(=O)N[C@@H](Cc1ccccc1)C(=O)N[C@@H](Cc1c[nH]c2ccccc12)C(=O)N[C@@H](CCC(=O)O)C(=O)O)C(C)C)[C@@H](C)O [Peptide 1],stability in cells,[10],quite stable
B1,Kd,[11],~590 nM
